In patent publication US11981677B2, “Further substituted triazolo quinoxaline derivatives” (Grünenthal GmbH, priority 2018, dated 2024):

Biological target: T1, Glucocorticoid Receptor (Homo sapiens, UniProt P04150)
T1 construct: expressed in transfected cells
T1 sequence (P04150 524-758 limits assumed): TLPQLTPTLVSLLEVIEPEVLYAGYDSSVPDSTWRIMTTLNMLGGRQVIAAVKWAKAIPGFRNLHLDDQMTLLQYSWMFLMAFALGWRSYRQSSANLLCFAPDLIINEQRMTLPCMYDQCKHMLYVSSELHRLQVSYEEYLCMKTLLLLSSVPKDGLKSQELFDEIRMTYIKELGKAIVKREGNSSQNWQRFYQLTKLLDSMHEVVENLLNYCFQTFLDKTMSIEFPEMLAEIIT
Experiment: Agonistic mode of action on the glucocorticoid receptor (CHO-Gal4/GR luciferase reporter cell line)
Type: cell-based
Conditions: CHO-Gal4/GR luciferase reporter cells; observed in the agonistic assay or the antagonistic assay (mode not given); read-out: IC50 or EC50 range
Method in brief: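 CHO cells stably expressing GAL4 DBD–GR ligand-binding domain fusion with GAL4-UAS firefly luciferase reporter, seeded 24 h, then treated in Opti-MEM with 8 half-log concentrations from 10 μM to 0.003 μM (0.5% DMSO), quadruplicate. Luminescence read on FLIPR after lysis with Triton/luciferin; EC50 calculated.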

Row | Compound | IC50 or EC50 (antagonist or agonist mode, not stated per compound) [µM]
1 | Cc1c(-c2cc(F)cc3[nH]ncc23)cc(F)c2c1-n1c(C)nnc1C(C)(C)N2 [Example 496, 6-Fluoro-8-(6-fluoro-1H-indazol-4-yl)-1,4,4,9-tetramethyl-5H-[1,2,4]triazolo[4,3-a]quinoxaline] | 0.1 to 1
2 | Cc1c(-c2cc(F)cc3c2ccn3S(=O)(=O)CC2CC2)cc(F)c2c1-n1c(C)nnc1C(C)(C)N2 [Example 497, 8-[1-(Cyclopropyl-methylsulfonyl)-6-fluoro-1H-indol-4-yl]-6-fluoro-1,4,4,9-tetramethyl-5H-[1,2,4]triazolo[4,3-a]quinoxaline] | < 0.1
3 | COc1c(-c2cc(F)cc3c2ccn3S(C)(=O)=O)c(F)c(F)c2c1-n1c(C)nnc1C(C)(C)N2 [Example 498, 6,7-Difluoro-8-(6-fluoro-1-methylsulfonyl-1H-indol-4-yl)-9-methoxy-1,4,4-trimethyl-5H-[1,2,4]triazolo[4,3-a]quinoxaline] | < 0.1
4 | COc1c(-c2cccc3c2ccn3S(C)(=O)=O)c(F)c(F)c2c1-n1c(C)nnc1C(C)(C)N2 [Example 499, 6,7-Difluoro-9-methoxy-1,4,4-trimethyl-8-(1-methylsulfonyl-1H-indol-4-yl)-5H-[1,2,4]triazolo[4,3-a]quinoxaline] | 0.1 to 1
5 | Cc1nnc2n1-c1c(c(F)c(F)c(-c3cccc4c3ccn4S(C)(=O)=O)c1C(F)(F)F)NC2(C)C [Example 500, 6,7-difluoro-1,4,4-trimethyl-8-(1-(methylsulfonyl)-1H-indol-4-yl)-9-(trifluoromethyl)-4,5-dihydro-[1,2,4]triazolo[4,3-a]quinoxaline] | 0.1 to 1
6 | COc1c(-c2cc(F)cc3c2cnn3S(C)(=O)=O)c(F)c(F)c2c1-n1c(C)nnc1C(C)(C)N2 [Example 501, 6,7-Difluoro-8-(6-fluoro-1-methylsulfonyl-1H-indazol-4-yl)-9-methoxy-1,4,4-trimethyl-5H-[1,2,4]triazolo[4,3-a]quinoxaline] | 0.1 to 1
7 | Cc1c(-c2cccc3c2ccn3S(C)(=O)=O)c(F)c(Cl)c2c1-n1c(C)nnc1C(C)(C)N2 [Example 502, 6-Chloro-7-fluoro-1,4,4,9-tetramethyl-8-(1-methylsulfonyl-1H-indol-4-yl)-5H-[1,2,4]triazolo[4,3-a]quinoxaline] | < 0.1
8 | Cc1c(-c2cc(F)cc3c2ccn3S(C)(=O)=O)c(F)c(Cl)c2c1-n1c(C)nnc1C(C)(C)N2 [Example 503, 6-Chloro-7-fluoro-8-(6-fluoro-1-methylsulfonyl-1H-indol-4-yl)-1,4,4,9-tetramethyl-5H-[1,2,4]triazolo[4,3-a]quinoxaline] | 1 to 15
9 | Cc1c(-c2cccc3[nH]ncc23)cc(F)c2c1-n1c(C)nnc1C(C)(C)N2 [Example 504, 6-Fluoro-8-(1H-indazol-4-yl)-1,4,4,9-tetramethyl-5H-[1,2,4]triazolo[4,3-a]quinoxaline] | 0.1 to 1
10 | COc1c(-c2cccc3c2ccn3S(=O)(=O)C2CC2)cc(F)c2c1-n1c(C)nnc1C(C)(C)N2 [Example 505, 8-[1-(Cyclopropylsulfonyl)-1H-indol-4-yl]-6-fluoro-9-methoxy-1,4,4-trimethyl-5H-[1,2,4]triazolo[4,3-a]quinoxaline] | 0.1 to 1
11 | Cc1c(-c2cc(Cl)cc3[nH]ccc23)cc(F)c2c1-n1c(C)nnc1C(C)(C)N2 [Example 506, 8-(6-Chloro-1H-indol-4-yl)-6-fluoro-1,4,4,9-tetramethyl-5H-[1,2,4]triazolo[4,3-a]quinoxaline] | 0.1 to 1
12 | Cc1c(-c2cc(C(F)(F)F)cc3[nH]ncc23)cc(F)c2c1-n1c(C)nnc1C(C)(C)N2 [Example 507, 6-Fluoro-1,4,4,9-tetramethyl-8-[6-(trifluoromethyl)-1H-indazol-4-yl]-5H-[1,2,4]triazolo[4,3-a]quinoxaline] | 0.1 to 1
13 | Cc1c(-c2cccc3c2cnn3S(C)(=O)=O)c(F)c(Cl)c2c1-n1c(C)nnc1C(C)(C)N2 [Example 509, 6-Chloro-7-fluoro-1,4,4,9-tetramethyl-8-(1-methylsulfonyl-1H-indazol-4-yl)-5H-[1,2,4]triazolo[4,3-a]quinoxaline] | 0.1 to 1
14 | Cc1c(-c2cc(F)cc3c2cnn3S(C)(=O)=O)c(F)c(Cl)c2c1-n1c(C)nnc1C(C)(C)N2 [Example 510, 6-Chloro-7-fluoro-8-(6-fluoro-1-methylsulfonyl-1H-indazol-4-yl)-1,4,4,9-tetramethyl-5H-[1,2,4]triazolo[4,3-a]quinoxaline] | < 0.1
15 | COc1c(-c2cccc3c2ccn3C2CC2)cc(F)c2c1-n1c(C)nnc1C(C)(C)N2 [Example 511, 8-(1-Cyclopropyl-1H-indol-4-yl)-6-fluoro-9-methoxy-1,4,4-trimethyl-5H-[1,2,4]triazolo[4,3-a]quinoxaline] | 0.1 to 1
16 | COc1c(-c2cc(F)cc3cc[nH]c23)cc(F)c2c1-n1c(C)nnc1C(C)(C)N2 [Example 515, 6-Fluoro-8-(5-fluoro-1H-indol-7-yl)-9-methoxy-1,4,4-trimethyl-5H-[1,2,4]triazolo[4,3-a]quinoxaline] | 0.1 to 1
17 | Cc1nnc2n1-c1c(c(F)c(F)c(-c3cc(F)cc4c3ccn4S(C)(=O)=O)c1C(F)(F)F)NC2(C)C [Example 518, 6,7-difluoro-8-(6-fluoro-1-(methylsulfonyl)-1H-indol-4-yl)-1,4,4-trimethyl-9-(trifluoromethyl)-4,5-dihydro-[1,2,4]triazolo[4,3-a]quinoxaline] | 0.1 to 1
18 | Cc1nnc2n1-c1c(c(F)c(F)c(-c3cc(F)cc4c3cnn4S(C)(=O)=O)c1C(F)(F)F)NC2(C)C [Example 519, 6,7-Difluoro-8-(6-fluoro-1-methylsulfonyl-1H-indazol-4-yl)-1,4,4-trimethyl-9-(trifluoromethyl)-5H-[1,2,4]triazolo[4,3-a]quinoxaline] | 0.1 to 1
19 | COc1cc(-c2cc(F)c3c(c2C)-n2c(C)nnc2C(C)(C)N3)c2ccn(S(C)(=O)=O)c2c1 [Example 523, 6-Fluoro-8-(6-methoxy-1-methylsulfonyl-1H-indol-4-yl)-1,4,4,9-tetramethyl-5H-[1,2,4]triazolo[4,3-a]quinoxaline] | 0.1 to 1

Second part, the compound after the results:

Row | IC50 or EC50 (antagonist or agonist mode, not stated per compound) [µM] | Compound
20 | 0.1 to 1 | Cc1c(-c2cc(F)cc3c(C)c[nH]c23)c(F)c(Cl)c2c1-n1c(C)nnc1C(C)(C)N2 [Example 508, 6-Chloro-7-fluoro-8-(5-fluoro-3-methyl-1H-indol-7-yl)-1,4,4,9-tetramethyl-5H-[1,2,4]triazolo[4,3-a]quinoxaline]
21 | < 0.1 | Cc1c(-c2cccc3[nH]ccc23)c(F)c(F)c2c1-n1c(C)nnc1C(C)(C)N2 [Example 512, 6,7-Difluoro-8-(1H-indol-4-yl)-1,4,4,9-tetramethyl-5H-[1,2,4]triazolo[4,3-a]quinoxaline]
22 | 0.1 to 1 | Cc1c(-c2cccc3c(C)c[nH]c23)c(F)c(F)c2c1-n1c(C)nnc1C(C)(C)N2 [Example 513, 6,7-Difluoro-1,4,4,9-tetramethyl-8-(3-methyl-1H-indol-7-yl)-5H-[1,2,4]triazolo[4,3-a]quinoxaline]
23 | < 0.1 | Cc1c(-c2cc(F)cc3c(C)c[nH]c23)c(F)c(F)c2c1-n1c(C)nnc1C(C)(C)N2 [Example 514, 6,7-Difluoro-8-(5-fluoro-3-methyl-1H-indol-7-yl)-1,4,4,9-tetramethyl-5H-[1,2,4]triazolo[4,3-a]quinoxaline]
24 | < 0.1 | Cc1nnc2n1-c1c(c(F)c(F)c(-c3cc(F)cc4[nH]ccc34)c1C(F)(F)F)NC2(C)C [Example 516, 6,7-Difluoro-8-(6-fluoro-1H-indol-4-yl)-1,4,4-trimethyl-9-(trifluoromethyl)-5H-[1,2,4]triazolo[4,3-a]quinoxaline]
25 | 0.1 to 1 | Cc1c(-c2ccc(F)c3[nH]ncc23)cc(F)c2c1-n1c(C)nnc1C(C)(C)N2 [Example 517, 6-Fluoro-8-(7-fluoro-1H-indazol-4-yl)-1,4,4,9-tetramethyl-5H-[1,2,4]triazolo[4,3-a]quinoxaline]
26 | 0.1 to 1 | Cc1c(-c2ccc(C#N)c3[nH]ccc23)c(F)c(F)c2c1-n1c(C)nnc1C(C)(C)N2 [Example 520, 4-(6,7-difluoro-1,4,4,9-tetramethyl-4,5-dihydro-[1,2,4]triazolo[4,3-a]quinoxalin-8-yl)-1H-indole-7-carbonitrile]
27 | < 0.1 | Cc1c(-c2cc(F)cc3c2ccn3C)c(F)c(F)c2c1-n1c(C)nnc1C(C)(C)N2 [Example 521, 6,7-Difluoro-8-(6-fluoro-1-methyl-1H-indol-4-yl)-1,4,4,9-tetramethyl-5H-[1,2,4]triazolo[4,3-a]quinoxaline]
28 | 0.1 to 1 | COc1cc(-c2c(C)c3c(c(F)c2F)NC(C)(C)c2nnc(C)n2-3)c2ccn(S(C)(=O)=O)c2c1 [Example 522, 6,7-Difluoro-8-(6-methoxy-1-methylsulfonyl-1H-indol-4-yl)-1,4,4,9-tetramethyl-5H-[1,2,4]triazolo[4,3-a]quinoxaline]
